According to patent US10125138B2, “Triazolotriazinone derivatives having activity a s herbicides” (Syngenta Participations AG, priority 2015, dated 2018):

How the values were obtained:
Assay type in all cases: in vivo
Conditions in all cases: 1000 g/h, evaluated after 13 days, five point scale
[1] = system: Amaranthus retoflexus (AMARE); assay: Post-emergence glasshouse herbicide test, Amaranthus retoflexus
Experimental: (§1) Seeds of a variety of test species are sown in standard soil in pots (Lolium perenne (LOLPE), Solanum nigrum (SOLNI), Amaranthus retoflexus (AMARE), Setaria faberi (SETFA), Echinochloa crus-galli (ECHCG), Ipomoea hederacea (IPOHE)). After cultivation for one day (pre-emergence) or after 8 days cultivation (post-emergence) under controlled conditions in a glasshouse (at 24/16° C., day/night; 14 hours light; 65% humidity), the plants are sprayed with an aqueous spray solution derived from the formulation of the technical active ingredient in acetone/water (50:50) solution containing 0.5% Tween 20 (polyoxyethelyene sorbitan monolaurate, CAS RN 9005-64-5). […] The test plants are then grown in a glasshouse under controlled conditions in a glasshouse (at 24/16° C., day/night; 14 hours light; 65% humidity) and watered twice daily. After 13 days for pre and post-emergence, the test is evaluated for the percentage damage caused to the plant. The biological activities are shown in the following table on a five point scale (5=80-100%; 4=60-79%; 3=40-59%; 2=20-39%; 1=0-19%).

Solanum nigrum (SOLNI) [2] = assay: Pre-emergence glasshouse herbicide test, Solanum nigrum
Experimental: (§2) Seeds of a variety of test species are sown in standard soil in pots (Lolium perenne (LOLPE), Solanum nigrum (SOLNI), Amaranthus retoflexus (AMARE), Setaria faberi (SETFA), Echinochloa crus-galli (ECHCG), Ipomoea hederacea (IPOHE)). After cultivation for one day (pre-emergence) or after 8 days cultivation (post-emergence) under controlled conditions in a glasshouse (at 24/16° C., day/night; 14 hours light; 65% humidity), the plants are sprayed with an aqueous spray solution derived from the formulation of the technical active ingredient in acetone/water (50:50) solution containing 0.5% Tween 20 (polyoxyethelyene sorbitan monolaurate, CAS RN 9005-64-5). Compounds are applied at 1000 g/h. The test plants are then grown in a glasshouse under controlled conditions in a glasshouse (at 24/16° C., day/night; 14 hours light; 65% humidity) and watered twice daily. After 13 days for pre and post-emergence, the test is evaluated for the percentage damage caused to the plant. The biological activities are shown in the following table on a five point scale (5=80-100%; 4=60-79%; 3=40-59%; 2=20-39%; 1=0-19%).

Lolium perenne (LOLPE) [3] = assay: Post-emergence glasshouse herbicide test, Lolium perenne
Experimental: as §1

Setaria faberi (SETFA) [4] = assay: Pre-emergence glasshouse herbicide test, Setaria faberi
Experimental: as §1

Lolium perenne (LOLPE) [5] = assay: Pre-emergence glasshouse herbicide test, Lolium perenne
Experimental: as §1

[6] = system: Amaranthus retoflexus (AMARE); assay: Pre-emergence glasshouse herbicide test, Amaranthus retoflexus
Experimental: as §1

Solanum nigrum (SOLNI) [7] = assay: Post-emergence glasshouse herbicide test, Solanum nigrum
Experimental: as §2

[8] = system: Echinochloa crus-galli (ECHCG); assay: Pre-emergence glasshouse herbicide test, Echinochloa crus-galli
Experimental: as §1

Setaria faberi (SETFA) [9] = assay: Post-emergence glasshouse herbicide test, Setaria faberi
Experimental: as §1

[10] = system: Ipomoea hederacea (IPOHE); assay: Pre-emergence glasshouse herbicide test, Ipomoea hederacea
Experimental: as §1

[11] = system: Ipomoea hederacea (IPOHE); assay: Post-emergence glasshouse herbicide test, Ipomoea hederacea
Experimental: as §1

[12] = system: Echinochloa crus-galli (ECHCG); assay: Post-emergence glasshouse herbicide test, Echinochloa crus-galli
Experimental: as §1

Row | Structure (SMILES) | percentage damage caused to the plant, POST Application AMARE [1] | percentage damage caused to the plant, PRE Application SOLNI (Solanum nigrum (SOLNI) [2]) | percentage damage caused to the plant, POST Application LOLPE (Lolium perenne (LOLPE) [3]) | percentage damage caused to the plant, PRE Application SETFA (Setaria faberi (SETFA) [4]) | percentage damage caused to the plant, PRE Application LOLPE (Lolium perenne (LOLPE) [5]) | percentage damage caused to the plant, PRE Application AMARE [6] | percentage damage caused to the plant, POST Application SOLNI (Solanum nigrum (SOLNI) [7]) | percentage damage caused to the plant, PRE Application ECHCG [8] | percentage damage caused to the plant, POST Application SETFA (Setaria faberi (SETFA) [9]) | percentage damage caused to the plant, PRE Application IPOHE [10] | percentage damage caused to the plant, POST Application IPOHE [11] | percentage damage caused to the plant, POST Application ECHCG [12]
1 | CCCn1nnnc1NC(=O)c1nn2cnn(-c3ccc(OC)cc3)c2nc1=O [Compound 1.035] | 4 (4=60-79%) | 5 (5=80-100%) | 5 (5=80-100%) | 5 (5=80-100%) | 5 (5=80-100%) | 5 (5=80-100%) | 5 (5=80-100%) | 5 (5=80-100%) | 4 (4=60-79%) | 5 (5=80-100%) | 5 (5=80-100%) | 5 (5=80-100%)
2 | Cc1cccc(-n2ncn3nc(C(=O)Nc4nnnn4C)c(=O)nc23)c1 [Compound 1.026] | 5 (5=80-100%) | 5 (5=80-100%) | 4 (4=60-79%) | 5 (5=80-100%) | 5 (5=80-100%) | 5 (5=80-100%) | 5 (5=80-100%) | 5 (5=80-100%) | 5 (5=80-100%) | 4 (4=60-79%) | 5 (5=80-100%) | 5 (5=80-100%)
3 | Cn1ncnc1NC(=O)c1nn2cnn(-c3ccc(F)cc3)c2nc1=O [Compound 2.001] | 5 (5=80-100%) | 5 (5=80-100%) | 4 (4=60-79%) | 5 (5=80-100%) | 3 (3=40-59%) | 5 (5=80-100%) | 5 (5=80-100%) | 5 (5=80-100%) | 5 (5=80-100%) | 4 (4=60-79%) | 5 (5=80-100%) | 4 (4=60-79%)
4 | CCCCn1nnnc1NC(=O)c1nn2cnn(-c3ccc(C(F)(F)F)cc3)c2nc1=O [Compound 1.044] | 4 (4=60-79%) | 5 (5=80-100%) | 3 (3=40-59%) | 3 (3=40-59%) | 3 (3=40-59%) | 3 (3=40-59%) | 5 (5=80-100%) | 2 (2=20-39%) | 3 (3=40-59%) | 3 (3=40-59%) | 5 (5=80-100%) | 1 (1=0-19%)
5 | CCCCn1nnnc1NC(=O)c1nn2cnn(-c3ccc(F)cc3)c2nc1=O [Compound 1.039] | 5 (5=80-100%) | 5 (5=80-100%) | 5 (5=80-100%) | 5 (5=80-100%) | 5 (5=80-100%) | 5 (5=80-100%) | 5 (5=80-100%) | 5 (5=80-100%) | 5 (5=80-100%) | 4 (4=60-79%) | 5 (5=80-100%) | 5 (5=80-100%)
6 | Cn1nnnc1NC(=O)c1nn2cnn(CCCC(F)(F)F)c2nc1=O [Compound 1.011] | 5 (5=80-100%) | 4 (4=60-79%) | 3 (3=40-59%) | 5 (5=80-100%) | 2 (2=20-39%) | 5 (5=80-100%) | 4 (4=60-79%) | 4 (4=60-79%) | 5 (5=80-100%) | 4 (4=60-79%) | 5 (5=80-100%) | 5 (5=80-100%)
7 | CCCCn1nnnc1NC(=O)c1nn2cnn(-c3ccc(OC)cc3)c2nc1=O [Compound 1.040] | 4 (4=60-79%) | 5 (5=80-100%) | 5 (5=80-100%) | 5 (5=80-100%) | 5 (5=80-100%) | 3 (3=40-59%) | 5 (5=80-100%) | 5 (5=80-100%) | 4 (4=60-79%) | 5 (5=80-100%) | 5 (5=80-100%) | 3 (3=40-59%)
8 | COc1cccc(-n2ncn3nc(C(=O)C4C(=O)CCCC4=O)c(=O)nc23)c1 [Compound 4.010] | 5 (5=80-100%) | 5 (5=80-100%) | 4 (4=60-79%) | 5 (5=80-100%) | 5 (5=80-100%) | 5 (5=80-100%) | 5 (5=80-100%) | 5 (5=80-100%) | 5 (5=80-100%) | 5 (5=80-100%) | 5 (5=80-100%) | 5 (5=80-100%)
